Measurements from US20260091078A1, “OLIGOPEPTIDE THAT INHIBITS ANGIOGENESIS AND VASCULAR FUNCTION” (UNIVERSIDAD NACIONAL AUTONOMA DE MEXICO, priority 2019, published 2026).

Tests used:
[1] = test system: immortalized bovine umbilical-vein endothelial cells (BUVEC E6E7); experiment: Proliferation of BUVEC E6E7 endothelial cells stimulated with VEGF (EdU click assay); format: cell-based; details: 100 nM, VEGF 50 ng ml^-1
Description: (§1) On a 96-well plate treated for cell culture, BUVEC E6E7 and HUVEC cells were seeded at a density of ˜14,000 and ˜11,000 cells cm^−2, respectively. BUVEC E6E7 cells were maintained in F12K culture media with 10% (v/v) fetal bovine serum (FBS) and the HUVEC in F12K media supplemented with 20% of FBS, 100 μg ml^−1 heparin and 25 μg ml^−1 of endothelial cell growth supplement (ECGS). After 24 hours, the cells were starved with FBS-reduced media (0.1% of FBS for BUVEC E6E7 and 0.5% for HUVEC) for 16 hours to synchronize cells in phase GO of the reproductive cycle. After this time, FBS and heparin were replenished only to HUVEC. The cells were then treated with vasoinhibin or the oligopeptide THGRGFI in concentrations ranging from 0.001 to 100 nM for 24 hours in the presence of 10 μM of the thymidine analog 5-Ethynyl-2′-deoxyuridine (EdU) and 50 ng ml^−1 VEGF for the BUVEC E6E7 or the combination of 25 ng ml^−1 VEGF and 20 ng ml^−1 bFGF for HUVEC. At the end of the experiment, cells were fixed with 4% paraformaldehyde, permeabilized with 0.5% Triton X-100 in TBS1x, and stained to detect the newly synthetized DNA by the incorporation of EdU using the “click” assay (which involves a copper catalyzed reaction to covalently bind fluorescent azide to the EDU incorporated to DNA). Total DNA was counterstained with Hoechst 33342 and the “click”-stained nuclei were quantified and plotted relative to the total number of Hoechst 33342-stained nuclei.
For the assay, BUVEC E6E7 cells were seeded at a density of ˜14′000 cells cm^−2 in a 96 well plate with F12K with 10% (v/v) FBS. After 24 hours, cells were starved with 0.1% of FBS for GO synchronization for ˜16 hours. Next, the cells were treated with the different oligopeptides in presence of 10 μM of the thymidine analog EdU and 50 ng ml^−1 of VEGF. Finally, the cells were fixed, permeabilized, and stained for the newly synthetized DNA by the EdU incorporation through the ‘click’ assay. The total DNA was stained with Hoechst 33342 and the percentage of ‘click’-stained nuclei over the total nuclei was a measure of proliferation.

[2] = test system: human umbilical-vein endothelial cells (HUVEC); experiment: Proliferation of HUVEC stimulated with VEGF and bFGF (EdU click assay); format: cell-based; details: for dose-response effect (biological potency) on proliferation of HUVEC: different doses, 24 hours, VEGF 25 ng ml^-1 and bFGF 20 ng ml^-1
Description: as §1
HUVEC were seeded on a 96 well plate at a density of ˜11,000 cells cm^−2 and maintained in F12K supplemented with 20% of FBS, 100 μg ml^−1 heparin and 25 μg ml^−1 endothelial cell growth supplement (ECGS). After 24 hours, the cells were synchronized in GO with starving conditions (FBS 0.5%) for 16 hours, and after that FBS and the heparin were replenished. Cells were then treated with THGRGFI, the different oligopeptides and 123 amino acids vasoinhibin, each in a concentration of 100 nM, for 24 hours in presence or absence of 10 μM of thymidine analog 5-Ethynyl-2′-deoxyuridine (EdU) and a combination of 25 ng ml^−1 VEGF and 20 ng ml^−1 bFGF. Finally, the cells were fixed with 4% paraformaldehyde, permeabilized with 0.5% of Triton X-100 in TBS1x and stained for the newly synthetized DNA with the ‘click’ method that detects the EdU incorporation. Total DNA was stained with Hoechst 33342 and the percentage of ‘click’-stained nuclei relative to total nuclei (Hoechst 33342-stained) indicated cell proliferation.
Approximately 11,000 HUVEC cells cm^−2 were seeded on a 96 well plate in F12K media with 20% FBS, 100 μg ml^−1 heparin and 25 μg ml^−1 ECGS. After 24 hours, cells were starved with 0.5% of FBS for ˜16 hours, and after that time the FBS and heparin were added again and cells treated with different doses of the alanine substituted oligopeptides for 24 hours, in the presence of EdU and a combination of 25 ng ml^−1 VEGF and 20 ng ml^−1 bFGF. Finally, the cells were fixed, permeabilized and stained to quantify the synthesis of DNA as a sign of proliferation.

Substance	effect on VEGF-induced proliferation of BUVEC E6E7 at single concentration [1]	dose-response effect (biological potency) on proliferation of HUVEC [2]	other results
GFITKAI (Amino acids 49 to 55 of human prolactin; listed as Homo sapiens)	did not shown any activity		
GRGFITK (Amino acids 47 to 53 of human prolactin; listed as Homo sapiens)	significatively inhibited the VEGF-induced proliferation of endothelial cells		
His Gly Arg [HGR]		very similar to the oligopeptide THGRGFI	
R4A: THGRGFI with the arginine at position X4 substituted by alanine (THGAGFI)		did not inhibit endothelial proliferation	
THIRGGF (scrambled sequence of SEQ ID NO 1) [Scr2, reference compound]			effect on proliferation of HUVEC at single concentration ([2]; 100 nM, VEGF 25 ng ml^-1 and bFGF 20 ng ml^-1, 24 hours): did not have any effect
TKAINSC (Amino acids 52 to 58 of human prolactin; listed as Homo sapiens)	did not shown any activity		
Thr His Gly Arg (THGR; Amino acids 45 to 48 of human prolactin; listed as Homo sapiens)		very similar to the oligopeptide THGRGFI	
